In general, Dmax refers to the greatest extent of degradation seen. A word on the DC50: it is the midpoint of the concentration-degradation curve.

The structures appear in SMILES notation. Read-outs that look alike come from different tables or passages of the source.

16 molecules from patent publication US12559506B2, “Indazole based compounds and associated methods of use” (Arvinas Operations, Inc., priority 2021, dated 2026) can be followed below.

In the assay the target is T1, LRRK2 (endogenous, HiBit tagged) (Homo sapiens, UniProt Q5S007).
T1 construct: endogenous in cells; host or cells: HEK293 cells with HiBit knock-in at the endogenous LRRK2 locus, stably expressing firefly luciferase
T1 sequence (Q5S007 whole entry): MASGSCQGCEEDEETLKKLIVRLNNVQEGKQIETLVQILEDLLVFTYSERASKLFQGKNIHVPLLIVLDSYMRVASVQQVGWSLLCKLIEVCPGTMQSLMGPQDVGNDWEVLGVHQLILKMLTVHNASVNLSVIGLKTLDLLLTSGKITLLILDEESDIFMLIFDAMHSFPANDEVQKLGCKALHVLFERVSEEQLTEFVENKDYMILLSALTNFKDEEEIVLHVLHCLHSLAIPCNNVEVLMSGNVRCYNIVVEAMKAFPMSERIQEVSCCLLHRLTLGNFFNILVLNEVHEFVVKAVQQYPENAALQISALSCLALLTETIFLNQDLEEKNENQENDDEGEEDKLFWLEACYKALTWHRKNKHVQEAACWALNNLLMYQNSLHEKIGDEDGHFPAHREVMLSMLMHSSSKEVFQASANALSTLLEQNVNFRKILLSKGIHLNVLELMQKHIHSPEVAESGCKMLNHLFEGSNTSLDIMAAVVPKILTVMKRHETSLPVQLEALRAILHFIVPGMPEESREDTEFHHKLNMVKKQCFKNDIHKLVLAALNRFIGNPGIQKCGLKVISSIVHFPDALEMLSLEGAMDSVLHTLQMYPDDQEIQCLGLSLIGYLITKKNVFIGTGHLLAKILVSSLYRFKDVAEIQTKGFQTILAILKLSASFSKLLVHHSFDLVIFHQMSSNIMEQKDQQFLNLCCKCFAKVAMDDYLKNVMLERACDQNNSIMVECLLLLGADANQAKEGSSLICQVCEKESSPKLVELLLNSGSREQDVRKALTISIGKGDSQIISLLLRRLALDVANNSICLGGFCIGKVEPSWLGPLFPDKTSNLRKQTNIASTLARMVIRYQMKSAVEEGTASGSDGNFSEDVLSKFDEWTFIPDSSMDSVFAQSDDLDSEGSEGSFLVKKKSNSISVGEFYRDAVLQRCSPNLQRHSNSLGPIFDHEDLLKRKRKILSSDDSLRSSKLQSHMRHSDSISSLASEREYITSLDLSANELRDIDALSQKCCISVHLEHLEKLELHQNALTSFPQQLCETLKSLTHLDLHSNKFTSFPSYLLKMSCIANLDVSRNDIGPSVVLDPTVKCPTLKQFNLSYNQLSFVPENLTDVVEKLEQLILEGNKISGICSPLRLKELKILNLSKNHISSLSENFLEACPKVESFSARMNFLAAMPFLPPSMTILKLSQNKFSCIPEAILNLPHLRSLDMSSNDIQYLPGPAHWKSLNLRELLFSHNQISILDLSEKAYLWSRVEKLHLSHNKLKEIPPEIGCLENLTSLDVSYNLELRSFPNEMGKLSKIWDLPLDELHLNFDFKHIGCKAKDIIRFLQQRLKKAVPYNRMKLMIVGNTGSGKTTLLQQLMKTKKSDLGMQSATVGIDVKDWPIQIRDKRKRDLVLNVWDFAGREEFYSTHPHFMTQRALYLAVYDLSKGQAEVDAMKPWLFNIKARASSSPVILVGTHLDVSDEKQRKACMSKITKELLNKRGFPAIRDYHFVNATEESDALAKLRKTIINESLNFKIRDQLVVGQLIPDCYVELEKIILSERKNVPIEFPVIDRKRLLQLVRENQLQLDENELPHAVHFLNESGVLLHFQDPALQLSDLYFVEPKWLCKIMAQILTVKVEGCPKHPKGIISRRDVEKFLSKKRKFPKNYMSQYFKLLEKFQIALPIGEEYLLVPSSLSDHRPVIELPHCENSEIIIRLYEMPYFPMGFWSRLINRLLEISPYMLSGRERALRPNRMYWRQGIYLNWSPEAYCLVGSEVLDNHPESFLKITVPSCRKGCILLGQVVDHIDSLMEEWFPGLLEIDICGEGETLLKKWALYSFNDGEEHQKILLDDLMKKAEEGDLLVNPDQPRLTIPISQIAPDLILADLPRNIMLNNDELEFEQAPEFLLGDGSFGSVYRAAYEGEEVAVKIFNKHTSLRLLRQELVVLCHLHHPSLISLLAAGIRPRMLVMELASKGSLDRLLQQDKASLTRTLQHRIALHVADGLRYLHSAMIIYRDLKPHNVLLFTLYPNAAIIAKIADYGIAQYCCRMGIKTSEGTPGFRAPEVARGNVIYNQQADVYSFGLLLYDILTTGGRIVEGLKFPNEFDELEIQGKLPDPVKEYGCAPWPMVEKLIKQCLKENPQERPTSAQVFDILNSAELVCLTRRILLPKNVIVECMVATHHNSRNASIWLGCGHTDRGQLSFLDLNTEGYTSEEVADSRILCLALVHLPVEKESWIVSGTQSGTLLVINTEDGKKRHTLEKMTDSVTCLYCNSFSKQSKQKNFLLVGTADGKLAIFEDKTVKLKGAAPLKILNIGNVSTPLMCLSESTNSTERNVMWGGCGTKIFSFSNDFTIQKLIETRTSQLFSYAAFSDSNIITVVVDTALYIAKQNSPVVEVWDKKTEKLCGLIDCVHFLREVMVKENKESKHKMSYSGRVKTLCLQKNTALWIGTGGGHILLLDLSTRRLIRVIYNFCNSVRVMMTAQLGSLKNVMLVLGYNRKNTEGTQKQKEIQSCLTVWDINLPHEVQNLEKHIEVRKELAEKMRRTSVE
As to the kind of experiment: Endogenous LRRK2 degradation assay, endogenous gene C-terminally HiBit-tagged in HEK293 cells (Nano-Glo Dual Luciferase). The class given is cell-based. Put shortly: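 LRRK2-HiBit quantified via Nano-Glo Dual Luciferase in HEK293 knock-in cells co-expressing firefly luciferase, after 24 h exposure to compound (1 μM final top, 1:3, 11 points). Values normalised to DMSO median per plate and curve-fitted; Alamar Blue viability run alongside.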
(In general: With HiBiT, luminescence reflects the tagged protein that the partner subunit can reach.)

Where [1] appears, read: endogenous HiBit-tagged LRRK2 in HEK293 cells, 24 hours treatment, read-out: **Endogenous WT Dmax (%).
The mark [2] stands for this setting: endogenous HiBit-tagged LRRK2 in HEK293 cells, 24 hours treatment, read-out: *Endogenous WT DC50.
[3] abbreviates: endogenous HiBit-tagged LRRK2 in HEK293 cells, 24 hours treatment, read-out: Endogenous WT DC50.
Setting [4] is: endogenous HiBit-tagged LRRK2 in HEK293 cells, 24 hours treatment, read-out: Endogenous WT Dmax.
The mark [5] stands for this setting: endogenous HiBit-tagged LRRK2, HEK293 cells, 24 hours, read-out: **Endogenous WT Dmax (%).
Setting [6] is: endogenous HiBit-tagged LRRK2, HEK293 cells, 24 hours, read-out: *Endogenous WT DC50.

As for `COc1c(N2CCC3(CC2)CN([C@H]2C[C@H](OC4CCN(c5cc(-c6[nH]nc7ccc(OC8(C)CC8)cc67)ncn5)CC4)C2)C3)ccc2c1CN(C1CCC(=O)NC1=O)C2=O` (some centres unmarked) [Compound 315, 3-(4-methoxy-1-oxo-5-{2-[(1r,3r)-3-[(1-{6-[5-(1-methylcyclopropoxy)-2H-indazol-3-yl]pyrimidin-4-yl}piperidin-4-yl)oxy]cyclobutyl]-2,7-diazaspiro[3.5]nonan-7-yl}-2,3-dihydro-1H-isoindol-2-yl)piperidine-2,6-dione], the Dmax under setting [1] was 50 to 70%. Further, the DC50 under setting [2] was less than 10 nM.

In the case of `COc1c(N2CCC(N3CC(F)(CC4CCN(c5cc(-c6[nH]nc7ccc(OC8(C)CC8)cc67)ncn5)CC4)C3)CC2)ccc2c1CN(C1CCC(=O)NC1=O)C2=O` (centres unmarked) [Compound 345, 3-(5-(4-(3-fluoro-3-((1-(6-(5-(1-methylcyclopropoxy)-2H-indazol-3-yl)pyrimidin-4-yl)piperidin-4-yl)methyl)azetidin-1-yl)piperidin-1-yl)-4-methoxy-1-oxoisoindolin-2-yl)piperidine-2,6-dione], the Dmax under setting [1] lay within 50 to 70%. Also, under setting [2], the 50% degradation concentration (DC50) was less than 10 nM.

As for `CC1(Oc2ccc3[nH]nc(-c4cc(N5CCC(CC6(F)CCN(CC7CCN(c8c(F)cc9c(c8F)CN(C8CCC(=O)NC8=O)C9=O)CC7)CC6)CC5)ncn4)c3c2)CC1` (centres unmarked) [Compound 223, 3-{4,6-difluoro-5-[4-({4-fluoro-4-[(1-{6-[5-(1-methylcyclopropoxy)-1H-indazol-3-yl]pyrimidin-4-yl}piperidin-4-yl)methyl]piperidin-1-yl}methyl)piperidin-1-yl]-1-oxo-2,3-dihydro-1H-isoindol-2-yl}piperidine-2,6-dione], the 50% degradation concentration (DC50) under setting [3] was in the range of 10 to 50 nM. Also, under setting [4], the maximal degradation (Dmax) was 50 to 70%.

On to `Cc1cc(-c2n[nH]c3ccc(OC4(C)CC4)nc23)cc(N2CCC(O[C@H]3CC[C@H](CN4CCN(c5ccc6c(c5F)CN(C5CCC(=O)NC5=O)C6=O)CC4)CC3)CC2)n1` (some centres unmarked) [Compound 371, 3-[4-fluoro-1-oxo-5-(4-{[(1r,4r)-4-[(1-{6-methyl-4-[5-(1-methylcyclopropoxy)-1H-pyrazolo[4,3-b]pyridin-3-yl]pyridin-2-yl}piperidin-4-yl)oxy]cyclohexyl]methyl}piperazin-1-yl)-2,3-dihydro-1H-isoindol-2-yl]piperidine-2,6-dione], for which, under setting [3], the DC50 is less than 10 nM. For the same molecule, the Dmax under setting [4] is 50 to 70%.

Regarding `CC1(Oc2ccc3[nH]nc(-c4cc(N5CCC(CN6CCC(F)(CC7CCN(c8ccc9c(c8F)CN(C8CCC(=O)NC8=O)C9=O)CC7)CC6)CC5)ncn4)c3c2)CC1` (centres unmarked) [Compound 231, 3-[4-fluoro-5-[4-[[4-fluoro-1-[[1-[6-[5-(1-methylcyclopropoxy)-1H-indazol-3-yl]pyrimidin-4-yl]-4-piperidyl]methyl]-4-piperidyl]methyl]-1-piperidyl]-1-oxo-isoindolin-2-yl]piperidine-2,6-dione], the DC50 under setting [3] is less than 10 nM. The Dmax under setting [4] fell in the range of 50 to 70%.

`CC1(Oc2ccc3[nH]nc(-c4cc(N5CC[C@@H](CN6CCN(CC7CCN(c8ccc9c(c8F)CN(C8CCC(=O)NC8=O)C9=O)CC7)CC6)C5)ncn4)c3c2)CC1` (stereo partly drawn) [Compound 327, 3-(4-fluoro-5-{4-[(4-{[(3S)-1-{6-[5-(1-methylcyclopropoxy)-1H-indazol-3-yl]pyrimidin-4-yl}pyrrolidin-3-yl]methyl}piperazin-1-yl)methyl]piperidin-1-yl}-1-oxo-2,3-dihydro-1H-isoindol-2-yl)piperidine-2,6-dione]: the Dmax under setting [1] is 50 to 70%. The DC50 under setting [2] is less than 10 nM.

With `CC1(Oc2ccc3n[nH]c(-c4cc(N5CCC6(CC5)CN([C@H]5C[C@H](OC7CCN(c8ccc9c(c8F)CN(C8CCC(=O)NC8=O)C9=O)CC7)C5)C6)ncn4)c3c2)CC1` (some centres unmarked) [Compound 326, 3-(4-fluoro-1-oxo-5-{4-[(1r,3r)-3-(7-{6-[5-(1-methylcyclopropoxy)-2H-indazol-3-yl]pyrimidin-4-yl}-2,7-diazaspiro[3.5]nonan-2-yl)cyclobutoxy]piperidin-1-yl}-2,3-dihydro-1H-isoindol-2-yl)piperidine-2,6-dione], the maximal degradation (Dmax) under setting [1] was in the range of 50 to 70%. For the same molecule, under setting [2], the 50% degradation concentration (DC50) was less than 10 nM.

For `CC1(Oc2cc3c(-c4cc(N5CCC(CN6CCC(F)(CN7CCN(c8cc9c(cc8F)C(=O)N(C8CCC(=O)NC8=O)C9)CC7)CC6)CC5)ncn4)[nH]nc3cc2F)CC1` (centres unmarked) [Compound 193, 3-[6-fluoro-5-[4-[[4-fluoro-1-[[1-[6-[6-fluoro-5-(1-methylcyclopropoxy)-2H-indazol-3-yl]pyrimidin-4-yl]-4-piperidyl]methyl]-4-piperidyl]methyl]piperazin-1-yl]-1-oxo-isoindolin-2-yl]piperidine-2,6-dione], the Dmax under setting [5] is no less than 70%. Further, the DC50 under setting [6] is less than 10 nM.

For the molecule `CC1(Oc2ccc3[nH]nc(-c4cc(N5CCC(CN6CC[C@H](OC7CCN(c8ccc9c(c8F)CN(C8CCC(=O)NC8=O)C9=O)CC7)CC6(C)C)CC5)ncn4)c3c2)CC1` (stereo partly drawn) [Compound 313, 3-[5-(4-{[(4S)-2,2-dimethyl-1-[(1-{6-[5-(1-methylcyclopropoxy)-1H-indazol-3-yl]pyrimidin-4-yl}piperidin-4-yl)methyl]piperidin-4-yl]oxy}piperidin-1-yl)-4-fluoro-1-oxo-2,3-dihydro-1H-isoindol-2-yl]piperidine-2,6-dione], the Dmax under setting [1] lay within 50 to 70%. The DC50 under setting [2] is less than 10 nM.

For `CC1(Oc2ccc3[nH]nc(-c4cc(N5CCC(CN6CC7CC(C6)N7CC6CCN(c7ccc8c(c7F)CN(C7CCC(=O)NC7=O)C8=O)CC6)CC5)ncn4)c3c2)CC1` (centres unmarked) [Compound 225, 3-{4-fluoro-5-[4-({3-[(1-{6-[5-(1-methylcyclopropoxy)-1H-indazol-3-yl]pyrimidin-4-yl}piperidin-4-yl)methyl]-3,6-diazabicyclo[3.1.1]heptan-6-yl}methyl)piperidin-1-yl]-1-oxo-2,3-dihydro-1H-isoindol-2-yl}piperidine-2,6-dione], the 50% degradation concentration (DC50) under setting [3] is less than 10 nM. For the same molecule, under setting [4], the greatest degradation seen (Dmax) fell in the range of 50 to 70%.

In the case of `CC1(Oc2cc3c(-c4cc(N5CCC(O[C@H]6C[C@H](OC7CCN(c8ccc9c(c8F)CN(C8CCC(=O)NC8=O)C9=O)CC7)C6)CC5)ncn4)n[nH]c3cn2)CC1` (some centres unmarked) [Compound 218, 3-[4-fluoro-5-[4-[3-[[1-[6-[5-(1-methylcyclopropoxy)-1H-pyrazolo[3,4-c]pyridin-3-yl]pyrimidin-4-yl]-4-piperidyl]oxy]cyclobutoxy]-1-piperidyl]-1-oxo-isoindolin-2-yl]piperidine-2,6-dione], the DC50 under setting [3] is less than 10 nM. The Dmax under setting [4] lay within 50 to 70%.

Consider `CC1(Oc2ccc3n[nH]c(-c4cc(N5CCC(O[C@H]6C[C@H](N7CC8(CCN(c9ccc%10c(c9F)CN(C9CCC(=O)NC9=O)C%10=O)CC8)C7)C6)CC5)ncn4)c3c2)CC1` (some centres unmarked) [Compound 335, 3-(4-fluoro-1-oxo-5-{2-[(1r,3r)-3-[(1-{6-[5-(1-methylcyclopropoxy)-2H-indazol-3-yl]pyrimidin-4-yl}piperidin-4-yl)oxy]cyclobutyl]-2,7-diazaspiro[3.5]nonan-7-yl}-2,3-dihydro-1H-isoindol-2-yl)piperidine-2,6-dione], for which the Dmax under setting [1] fell in the range of 50 to 70%. Moreover, the half-maximal degradation concentration (DC50) under setting [2] is less than 10 nM.

As for `COc1c(N2CCC(CN3CCN(CC4CCN(c5cc(-c6n[nH]c7cc(F)c(OC8(C)CC8)cc67)ncn5)CC4)C(C)(C)C3)CC2)ccc2c1CN(C1CCC(=O)NC1=O)C2=O` (centres unmarked) [Compound 359, 3-{5-[4-({4-[(1-{6-[6-fluoro-5-(1-methylcyclopropoxy)-1H-indazol-3-yl]pyrimidin-4-yl}piperidin-4-yl)methyl]-3,3-dimethylpiperazin-1-yl}methyl)piperidin-1-yl]-4-methoxy-1-oxo-2,3-dihydro-1H-isoindol-2-yl}piperidine-2,6-dione], under setting [3], the DC50 is less than 10 nM. Moreover, the maximal degradation (Dmax) under setting [4] was 50 to 70%.

Take `COc1cc(N2CCC(CN3CCN(CC4CCN(c5cc(-c6n[nH]c7ccc(OC8(C)CC8)cc67)ncn5)CC4)CC3)CC2)cc2c1C(=O)N(C1CCC(=O)NC1=O)C2` (centres unmarked) [Compound 215, 3-[7-methoxy-5-[4-[[4-[[1-[6-[5-(1-methylcyclopropoxy)-1H-indazol-3-yl]pyrimidin-4-yl]-4-piperidyl]methyl]piperazin-1-yl]methyl]-1-piperidyl]-1-oxo-isoindolin-2-yl]piperidine-2,6-dione]: the DC50 under setting [3] is less than 10 nM. The greatest degradation seen (Dmax) under setting [4] was no less than 70%.

For the molecule `C[C@H]1CN(c2cc(-c3[nH]nc4ccc(OC5(C)CC5)cc34)ncn2)CCN1CC(=O)N1CCC(CN2CCN(c3ccc4c(c3)C(=O)N(C3CCC(=O)NC3=O)C4=O)CC2)CC1` (stereo partly drawn) [Compound 59, 2-(2,6-dioxo-3-piperidyl)-5-[4-[[1-[2-[(2S)-2-methyl-4-[6-[5-(1-methylcyclopropoxy)-2H-indazol-3-yl]pyrimidin-4-yl]piperazin-1-yl]acetyl]-4-piperidyl]methyl]piperazin-1-yl]isoindoline-1,3-dione], under “endogenous HiBit-tagged LRRK2 in HEK293 cells, 24 hours, read-out: **Endogenous WT Dmax (%)”, the Dmax is no less than 70%. In addition, the half-maximal degradation concentration (DC50) (endogenous HiBit-tagged LRRK2 in HEK293 cells, 24 hours, read-out: *Endogenous WT DC50) was less than 10 nM.

In the case of `COc1cc2c(cc1N1CCC(CN3CCC(F)(CN4CCN(c5cc(-c6[nH]nc7ccc(OC8(C)CC8)cc67)ncn5)CC4)CC3)CC1)CN(C1CCC(=O)NC1=O)C2=O` (centres unmarked) [Compound 198, 3-[5-[4-[[4-fluoro-4-[[4-[6-[5-(1-methylcyclopropoxy)-2H-indazol-3-yl]pyrimidin-4-yl]piperazin-1-yl]methyl]-1-piperidyl]methyl]-1-piperidyl]-6-methoxy-1-oxo-isoindolin-2-yl]piperidine-2,6-dione], the greatest degradation seen (Dmax) under setting [5] was no less than 70%. The DC50 under setting [6] is less than 10 nM.
